Experimental data reported in patent publication US8993565B2, “(6-oxo-1,6-dihydropyrimidin-2-yl)amide derivatives, preparation thereof and pharmaceutical use thereof as AKT(PKB) phosphorylation inhibitors” (Sanofi, priority 2009, dated 2015).
pIC50: −log10 of the molar value.

What was measured:
[1] = test system: AKT protein phosphorylated on serine 473 (pAKT-S473); assay: Study of pAKT expression in PC3 human prostate carcinoma cells measured by western blotting (Test A); assay type: cell-based; conditions: PC-3, inhibition of AKT phosphorylation (pAKT-S473), 1 to 2 hours incubation, absolute IC50, mean of two experiments
Protocol: (§1) The inhibitory activity of the molecules on AKT phosphorylation is measured either by western blotting using the technique described below, or by the MSD Multi-spot Biomarker detection technique from Meso Scale Discovery also described below.
Study of pAKT Expression in PC3 Human Prostate Carcinoma Cells Measured by Western Blotting (Test A):
(§2) On day 2, the cells are incubated in the presence or absence of the test products for 1 to 2 hours at 37° C. in the presence of 5% CO2. The molecules, diluted in dimethyl sulphoxide (DMSO Sigma #D2650), are added from a 10-times concentrated stock solution, the final percentage of DMSO being 0.1%. The molecules are tested either at a single concentration of less than or equal to 10 μM, or at increasing concentrations in a range that can extend from less than 1 nM to 10 μM.
After this incubation, the cells are lysed for the preparation of the proteins.
The lysate is centrifuged for 10 min at 6000 rpm. 155 μl of supernatant are recovered. 150 μl are incubated for denaturation for 5 min at 95° C. in the presence of 4× NuPAGE LDS Sample Buffer diluted 4-fold (InVitrogen ref NP0007) and of 10× NuPAGE Sample Reducing Agent diluted 10-fold (InVitrogen ref NP0009). These samples are then frozen at −20° C.
The gel is then transferred on to an Invitrolon PVDF membrane (Invitrogen #LC2007) permeabilised beforehand and for a few seconds in ethanol (Ethanol Fischer Scientific #E/0600DF/15).
The transfer is carried out in a Biorad tank at 30 volts overnight or at 60 volts for 3 hours, in the presence of 20× NUPAGE Transfer Buffer diluted 20-fold (InVitrogen ref NP0006).
The membrane is then saturated in saturating solution composed of TBS (10× Tris Buffered Saline, Sigma #T5912, diluted 10-fold), 0.1% Tween (Sigma #P5927) and 3% BSA (Bovine Albumin Serum Fraction V, Sigma #A4503) for 6 h after overnight transfer or else for 1 h after transfer for a period of 3 h.
Two rinses for min in washing solution composed of TBS and 0.1% Tween 20 are carried out before hybridisation of the secondary antibodies.
The secondary antibodies are diluted 110000th for the rabbit anti-Mouse IgG HRP antibody (W402 Promega) and to 110000th for the goat anti-Rabbit IgG HRP antibody (W401 Promega) in saturating solution, and then shaken for 1 h at ambient temperature.
Two rinses for 30 min in washing solution are carried out and then a rinse for 5 min in H2O is carried out in order to eliminate the remaining Tween 20.
The luminescence is read with the FujiFilm device (Ray Test).
The FUJI device measures the total luminescence signal obtained (AU) for each band selected. It then subtracts the background noise (BG) proportional to the size of the band selected (Area), said background noise being calculated from a specific background noise band, with a view to obtaining the specific signal (AU-BG) for each band. The band obtained in the absence of product and in the presence of 0.1% DMSO is considered to be the 100% signal. The software calculates the % specific activity (Ratio) obtained for each band selected as a function of this 100% signal. The percentage inhibition is calculated for each concentration according to the formula (100%−Ratio).
Two independent experiments make it possible to calculate the mean of the percentages of inhibition obtained at a given concentration for the products tested only at one concentration.
Two independent experiments make it possible to calculate the mean of the IC50s.

[2] = test system: AKT protein phosphorylated on serine 473 (P-AKT-S473); assay: Study of pAKT expression in PC3 human prostate carcinoma cells measured by the MSD Multi-spot Biomarker Detection technique (Test B); assay type: cell-based; conditions: PC-3, inhibition of AKT phosphorylation (P-AKT-S473), MSD sandwich immunoassay, 1 to 2 h incubation, absolute IC50, mean of 2 experiments
Protocol: as §1
Study of pAKT Expression in PC3 Human Prostate Carcinoma Cells Measured by the MSD Multi-Spot Biomarker Detection Technique from Meso Scale Discovery (Test B):
The primary antibody specific for P-AKT-S473 (Kit #K151CAD) is coated on to an electrode in each well of the 96-well plates of the MSD, kit: after the addition of a protein lysate to each well, the signal is visualised by adding a secondary detection antibody labelled with an electrochemoluminescent compound. The procedure followed is that described in the kit.
as §2, with “h” for “hours”, “5% of” for “5%”, “20-times” for “10-times”
After this incubation, the cells are lysed for the preparation of the proteins. […] At this stage, the plates containing the lysates can be stored at −20° C. or at −80° C.
The wells of the 96-well plates of the MSD kit are saturated for 1 h at ambient temperature with the blocking solution of the MSD kit. Four washes are carried out with 150 μl of Tris Wash Buffer of the MSD kit. The lysates previously prepared are transferred into the 96-well multi-spot plates of the MSD kit and incubated for 1 h at ambient temperature, with shaking. Four washes are carried out with 150 μl of Tris Wash Buffer of the MSD kit. 25 μl of the MSD sulfo-tag detection antibody solution are added to the wells and incubated for 1 h at ambient temperature, with shaking. Four washes are carried out with 150 μl of Tris Wash Buffer of the MSD kit. 150 μl of Read Buffer of the MSD kit are added to the wells and the plates are read immediately on the S12400 instrument from Meso Scale Discovery.
The instrument measures a signal for each well. Wells without cells and containing the lysis buffer serve to determine the background noise that will be subtracted from all the measurements (min). The wells containing cells in the absence of product and in the presence of 0.1% DMSO are considered to be the 100% signal (max). The percentage inhibition is calculated for each concentration of test product according to the following formula: (1-((test-min)(max-min)))×100.
2 independent experiments make it possible to calculate the mean of the IC50 values.

pIC50 [1]	pIC50 [2]	SMILES
6.99		O=C(Cc1nc(N2CCOCC2)cc(=O)[nH]1)Nc1ccccc1 [Example 1, 2-[4-(morpholin-4-yl)-6-oxo-1,6-dihydropyrimidin-2-yl]-N-phenylacetamide]
6.49		O=C(Cc1nc(N2CCOCC2)cc(=O)[nH]1)Nc1ccc(F)cc1 [Example 2, N-(4-fluorophenyl)-2-[4-(morpholin-4-yl)-6-oxo-1,6-dihydropyrimidin-2-yl]acetamide]
7.00		O=C(Cc1nc(N2CCOCC2)cc(=O)[nH]1)Nc1cccc(Cl)c1 [Example 3, N-(3-chlorophenyl)-2-[4-(morpholin-4-yl)-6-oxo-1,6-dihydropyrimidin-2-yl]acetamide]
7.64		O=C(Cc1nc(N2CCOCC2)cc(=O)[nH]1)Nc1ccc(F)c(F)c1 [Example 6, N-(3,4-difluorophenyl)-2-[4-(morpholin-4-yl)-6-oxo-1,6-dihydropyrimidin-2-yl]acetamide]
6.50		COc1cc(NC(=O)Cc2nc(N3CCOCC3)cc(=O)[nH]2)ccc1F [Example 8, N-(4-fluoro-3-methoxyphenyl)-2-[4-(morpholin-4-yl)-6-oxo-1,6-dihydropyrimidin-2-yl]acetamide]
6.14		O=C(Cc1nc(N2CCOCC2)cc(=O)[nH]1)Nc1ccccc1F [Example 9, N-(2-fluorophenyl)-2-[4-(morpholin-4-yl)-6-oxo-1,6-dihydropyrimidin-2-yl]acetamide]
5.46		Cc1ccccc1NC(=O)Cc1nc(N2CCOCC2)cc(=O)[nH]1 [Example 10, N-(2-methylphenyl)-2-[4-(morpholin-4-yl)-6-oxo-1,6-dihydropyrimidin-2-yl]acetamide]
6.20		COc1ccccc1NC(=O)Cc1nc(N2CCOCC2)cc(=O)[nH]1 [Example 11, N-(2-methoxyphenyl)-2-[4-(morpholin-4-yl)-6-oxo-1,6-dihydropyrimidin-2-yl]acetamide]
5.85		O=C(Cc1nc(N2CCOCC2)cc(=O)[nH]1)Nc1ccc(Cl)cc1 [Example 15, N-(4-chlorophenyl)-2-[4-(morpholin-4-yl)-6-oxo-1,6-dihydropyrimidin-2-yl]acetamide]
6.07		COc1cccc(NC(=O)Cc2nc(N3CCOCC3)cc(=O)[nH]2)c1 [Example 16, N-(3-methoxyphenyl)-2-[4-(morpholin-4-yl)-6-oxo-1,6-dihydropyrimidin-2-yl]acetamide]
5.83		O=C(Cc1nc(N2CCOCC2)cc(=O)[nH]1)Nc1cccc(C(F)(F)F)c1 [Example 17, 2-[4-(morpholin-4-yl)-6-oxo-1,6-dihydropyrimidin-2-y]-N-[3-(trifluoromethyl)phenyl]acetamide]
7.64		O=C(Cc1nc(N2CCOCC2)cc(=O)[nH]1)Nc1cccc(Br)c1 [Example 18, N-(3-bromophenyl)-2-[4-(morpholin-4-yl)-6-oxo-1,6-dihydropyrimidin-2-yl]acetamide]
5.88		COC(=O)c1cccc(NC(=O)Cc2nc(N3CCOCC3)cc(=O)[nH]2)c1 [Example 20, methyl 3-({[4-(morpholin-4-yl)-6-oxo-1,6-dihydropyrimidin-2-yl]acetyl}amino)benzoate]
5.00		O=C(Cc1nc(N2CCOCC2)cc(=O)[nH]1)Nc1cccc(C(=O)O)c1 [Example 21, 3-({[4-(morpholin-4-yl)-6-oxo-1,6-dihydropyrimidin-2-yl]acetyl}amino)benzoic acid]
6.46		CC(C)c1cccc(NC(=O)Cc2nc(N3CCOCC3)cc(=O)[nH]2)c1 [Example 22, 2-[4-(morpholin-4-yl)-6-oxo-1,6-dihydropyrimidin-2-yl]-N-[3-(propan-2-yl)phenyl]acetamide]
	6.36	COC(=O)c1cc(F)ccc1NC(=O)Cc1nc(N2CCOCC2)cc(=O)[nH]1 [Example 144, Methyl 5-fluoro-2-({[4-(morpholin-4-yl)-6-oxo-1,6-dihydropyrimidin-2-yl]acetyl}amino)benzoate]
	6.74	O=C(Cc1nc(N2CCOCC2)cc(=O)[nH]1)N1CCc2ncccc21 [Example 146, 2-[2-(2,3-dihydro-1H-pyrrolo[3,2-b]pyridin-1-yl)-2-oxoethyl]-6-(morpholin-4-yl)pyrimidin-4(3H)-one]
	8.40	O=C(Cc1nc(N2CCOCC2)cc(=O)[nH]1)N1CCc2cc(F)c(F)cc21 [Example 147, 2-[2-(5,6-Difluoro-2,3-dihydroindol-1-yl)-2-oxoethyl]-6-morpholin-4-yl-3H-pyrimidin-4-one]
	7.37	O=C(Cc1nc(N2CCOCC2)cc(=O)[nH]1)N1CCOc2c(Cl)cccc21 [Example 149, 2-[2-(8-chloro-2,3-dihydro-4H-1,4-benzoxazin-4-yl)-2-oxoethyl]-6-(morpholin-4-yl)pyrimidin-4(3H)-one]
	6.72	Cc1cccc(NC(=O)Cc2nc(N3CCOCC3)cc(=O)[nH]2)c1O [Example 150, N-(2-hydroxy-3-methylphenyl)-2-[4-(morpholin-4-yl)-6-oxo-1,6-dihydropyrimidin-2-yl]acetamide]
	7.54	O=C(Cc1nc(N2CCOCC2)cc(=O)[nH]1)Nc1cccc([N+](=O)[O-])c1O [Example 151, N-(2-hydroxy-3-nitrophenyl)-2-[4-(morpholin-4-yl)-6-oxo-1,6-dihydropyrimidin-2-yl]acetamide]
	6.03	N#Cc1cccc(NC(=O)Cc2nc(N3CCOCC3)cc(=O)[nH]2)c1O [Example 152, N-(3-cyano-2-hydroxyphenyl)-2-[4-(morpholin-4-yl)-6-oxo-1,6-dihydropyrimidin-2-yl]acetamide]
	7.31	O=C(Cc1nc(N2CCOCC2)cc(=O)[nH]1)Nc1cccc(C(F)(F)F)c1O [Example 153, N-[2-hydroxy-3-(trifluoromethyl)phenyl]-2-[4-(morpholin-4-yl)-6-oxo-1,6-dihydropyrimidin-2-yl]acetamide]
	7.55	CC1(C)CN(C(=O)Cc2nc(N3CCOCC3)cc(=O)[nH]2)c2ccccc21 [Example 154, 2-[2-(3,3-dimethyl-2,3-dihydro-1H-indol-1-yl)-2-oxoethyl]-6-(morpholin-4-yl)pyrimidin-4(3H)-one]
